According to patent US9012216B2, “Methods of determining efficacy of cyclodextrin therapy” (Washington University, priority 2008, dated 2015):

Assay: Stability of oxysterols in NPC plasma samples processed with/without BHT at 4° C. or room temperature
Format: physicochemical, human
Method: Treatments include: NPC plasma samples treated with BHT (“BHT”), no BHT (“No BHT”), at 4° C. with BHT (“4 BHT”), at 4° C. without BHT (“4 No BHT”), at room temperature (20-21° C.) with BHT (“RT BHT”), and at room temperature (20-21° C.) without BHT (“RT No BHT”).
Treatments include: NPC plasma samples treated overnight with BHT (“BHT”), no BHT (“No BHT”), at 4° C. with BHT (“4 BHT”), at 4° C. without BHT (“4 No BHT”), at room temperature (20-21° C.) with BHT (“RT BHT”), and at room temperature (20-21° C.) without BHT (“RT No BHT”).
The stability of the oxysterols triol and 7-keto prepared in accordance with the methods of the present disclosure are shown in FIGS. 7A and 7B. Patient's having confirmed NPC disease were used to obtain plasma biological samples. The plasma biological samples were processed as described in Examples 1-4 except that some of the samples were not treated with butylated hydroxytoluene (BHT, a known antioxidant that prevents further oxidation of cholesterol), and either treated at room temperature or at 4° C. with and without BHT.

SMILES	Stability in plasma samples: ability to isolate and quantify
CC(C)CCC[C@@H](C)[C@H]1CC[C@H]2[C@@H]3C(=O)C=C4C[C@@H](O)CC[C@]4(C)[C@H]3CC[C@]12C [7-keto, 7-ketocholesterol]	without adversely affecting
CC(C)CCC[C@@H](C)[C@H]1CC[C@H]2[C@@H]3C[C@@H](O)[C@@]4(O)C[C@@H](O)CC[C@]4(C)[C@H]3CC[C@]12C [triol, cholestane-3β,5α,6β-triol]	without adversely affecting
